Earlier results as cited in patent US5500433A, “Method of treating drug abuse” (Merrell Pharmaceuticals Inc., priority 1995, dated 1996).

Columns and labels:
[1] = tested on: vascular smooth muscle cells; conditions: rabbit vascular smooth muscle cells
thrombus formation = conditions: canine models
coronary vessels = conditions: patients with stable angina
[2] = tested on: phospholipase C mediated hydrolysis of phosphoinositides; conditions: rabbit vascular smooth muscle cells
[3] = tested on: preference for alcohol and cocaine; conditions: rodent

SMILES | effect on PDGF induced DNA synthesis [1] | prevention of thrombus formation (thrombus formation) | effect on coronary vessel constriction (coronary vessels) | inhibition of phospholipase C mediated hydrolysis of phosphoinositides [2] | effect on preference for alcohol and cocaine [3]
O=C(c1ccc(F)cc1)C1CCN(CCn2c(=O)[nH]c3ccccc3c2=O)CC1 [Ketanserin] | inhibited PDGF induced DNA synthesis | extremely effective in preventing thrombus formation | blocked coronary vessel constriction | inhibited phospholipase C mediated hydrolysis of phosphoinositides | 
Cc1nc2sccn2c(=O)c1CCN1CCC(=C(c2ccc(F)cc2)c2ccc(F)cc2)CC1 [ritanserin] |  |  |  |  | abolished the preference for both alcohol and cocaine
NCCc1c[nH]c2ccc(O)cc12 [serotonin] | stimulates PDGF induced DNA synthesis |  | induced constriction of the coronary vessels in these patients at all concentrations tested |  | 
